Data on five molecules can be found in patent US20130072533A1, “COMPOUNDS WITH BOTH ANALGESIC AND ANTI-HYPERALGESIC EFFICACY” (priority 2010, published 2013).

The melting point is the temperature of the solid-liquid transition.

Data set [1] has as its system pain threshold of the mouse. Briefly: Hot plate test (acute thermal stimulus). It counts as in vivo. The settings on record: for HOT PLATE TEST, 15 min / HOT PLATE TEST, 30 min / HOT PLATE TEST, 45 min / HOT PLATE TEST, 60 min / HOT PLATE TEST, Pre-test: mice. (In general: Thermal pain tests record how soon the animal reacts.)
The test system of data set [2] is hyperalgesia induced in the rat by loose ligation of the sciatic nerve. The data set can be described thus: Paw pressure test, rat mononeuropathy (loose ligation of the sciatic nerve). The class given is in vivo. The procedure: In particular, a racemic mixture of the compounds of formula (I) in the form of sodium salt, in which the stereogenic centre deriving from camosine is in the L configuration, was subjected to in vivo pharmacological tests which have enabled their surprising analgesic effects to be discovered.
The observed effect is greater, albeit slightly, than that obtained by tramadol 100 mg kg^−1 per os and pregabalin 200 mg kg^−1 per os, in the same experimental model.

Data set [3] deals with spontaneous motility and exploratory activity of the mouse. The data set can be described thus: Hole-board test. It counts as in vivo. The source says: (§1) In particular, in the case of the rotarod, the number of falls from the rotating rod progressively decreases with repeated falls. This confirms that the observed anti-hyperalgesic effects are not due to a change in the animal's behaviour.

The test system of data set [4] is motor coordination of the mouse. Briefly: Rotarod test. It counts as in vivo.
From the text: as §1

Data set [5] deals with osteoarthritis induced pain (MIA) in the rat. Briefly: Paw pressure test, osteoarthritis induced pain (intra-articular monosodium iodoacetate). The conditions noted are these: for PAW PRESSURE, AFTER TREATMENT (15 min) / PAW PRESSURE, AFTER TREATMENT 30 min / PAW PRESSURE, Pre-test: MIA rats. The class given is in vivo. How it is done: At the same doses of 10 and 30 mg kg^−1 per os, the racemic mixture under study was also found to be effective in reversing the pain threshold reduction induced by the intra-articular Injection of monoiodide acetate at a dose of 2 mg in a 25 μl volume (osteoarthritis model). In this case the effect is statistically significant up to 45 minutes after administration at the lower dose and up to 60 minutes at the three-fold dose.

Data set [6] concerns acetic acid induced writhes in mice. The data set can be described thus: Abdominal writhing test (acetic acid 0.6%). The class given is in vivo, mouse. The procedure: The 10 mg kg^−1 per os dose was also found to be effective.
For orientation: Writhing tests count abdominal constrictions after an irritant is injected.

For data set [7], the system named is oxaliplatin induced hyperalgesia in the rat. Briefly: Paw pressure test, oxaliplatin-induced hyperalgesia. The class given is in vivo. The conditions noted are these: oxaliplatin rats.
[8] abbreviates: 30 mg kg^−1 per os, 30 min before the test.

Each structure is given as a SMILES string. Where a name gives a salt, the structure may show the parent alone.

Turning to `O=C(CCCCC1CCSS1)NCCC(=O)NC(Cc1cnc[nH]1)C(=O)O` (racemic) (as salt: sodium) [Compound 2], the melting point was > 213 °C (dec.).
With `O=C(CCCCC1CCSS1)NCCC(=O)NC(Cc1cnc[nH]1)C(=O)O` (racemic) [Compound 2], in data set [1] (1 mg/kg per os), the “HOT PLATE TEST, 15 min” value is 18.7 ± 2.7; the “HOT PLATE TEST, 30 min” value worked out at 25.1 ± 2.7; the “HOT PLATE TEST, 45 min” value is 14.0 ± 2.0; the “HOT PLATE TEST, 60 min” value was determined as 15.7 ± 2.6. Also, the “HOT PLATE TEST, Pre-test” value in data set [1] (1 mg/kg per os) is listed as 15.7 ± 0.8. Further, in data set [1] (10 mg/kg per os), the “HOT PLATE TEST, 15 min” value worked out at 25.9 ± 2.8; the “HOT PLATE TEST, 30 min” value was 22.3 ± 2.6; the “HOT PLATE TEST, 45 min” value stood at 19.3 ± 1.9; the “HOT PLATE TEST, 60 min” value is listed as 17.4 ± 0.8. The “HOT PLATE TEST, Pre-test” value in data set [1] (10 mg/kg per os) was determined as 15.3 ± 0.9. In data set [1] (30 mg/kg per os), the “HOT PLATE TEST, 15 min” value is 29.7 ± 2.8; the “HOT PLATE TEST, 30 min” value was 26.0 ± 2.7; the “HOT PLATE TEST, 45 min” value is 20.3 ± 2.9; the “HOT PLATE TEST, 60 min” value amounted to 18.7 ± 2.1. The “HOT PLATE TEST, Pre-test” value in data set [1] (30 mg/kg per os) was 15.7 ± 1.3. Also, the “rise of the pain threshold” value in data set [1] (dose range between 1 and 30 mg kg^−1 per os) is on record as “able to raise the pain threshold in a dose-dependent manner”. Moreover, in data set [2] (10 mg/kg per os), the “onset of the effect after administration” value amounted to 15 min and the “time up to which the effect remained unchanged” value is on record as “up to 45 minutes”. Besides, in data set [2] (10 mg/kg per os, left paw), the “PAW PRESSURE, AFTER TREATMENT (15 min)” value is listed as 69.5 ± 4.4 g and the “PAW PRESSURE, BEFORE TREATMENT” value worked out at 61.9 ± 3.4 g. For the same molecule, in data set [2] (10 mg/kg per os, ligation 14 days earlier), the reversal of hyperalgesia entry is reported as “able to reverse, in a statistically significant manner”. Besides, in data set [2] (10 mg/kg per os, right paw), the “PAW PRESSURE, AFTER TREATMENT (15 min)” value was found to be 48.3 ± 3.5 g and the “PAW PRESSURE, BEFORE TREATMENT” value was 25.2 ± 3.3 g. In data set [2] (30 mg/kg per os, left paw), the “PAW PRESSURE, AFTER TREATMENT (15 min)” value came to 81.6 ± 3.1 g and the “PAW PRESSURE, BEFORE TREATMENT” value was 59.2 ± 3.8 g. In data set [2] (30 mg/kg per os, right paw), the “PAW PRESSURE, AFTER TREATMENT (15 min)” value worked out at 66.3 ± 3.3 g and the “PAW PRESSURE, BEFORE TREATMENT” value was found to be 24.8 ± 3.2 g. Besides, the “change of behavioural parameters: spontaneous motility and exploratory activity (hole-board)” value in data set [3] (30 mg kg^−1 per os) is given as “does not alter the behavioural parameters”. In data set [3] (30 mg/kg per os, mice), this molecule yielded a No. of inspections of 37.8 ± 7.5 and a No. of movements of 30.3 ± 7.7. Also, the “change of behavioural parameters: motor coordination (rotarod)” value in data set [4] (30 mg kg^−1 per os) is “does not alter the behavioural parameters”. Moreover, the “FALLS IN 30 SEC, 15 min” value in data set [4] (30 mg/kg per os, mice, 15 min) is 3.9 ± 0.3. For the same molecule, the “FALLS IN 30 SEC, 30 min” value in data set [4] (30 mg/kg per os, mice, 30 min) was 1.3 ± 0.3. In addition, the “FALLS IN 30 SEC, 45 min” value in data set [4] (30 mg/kg per os, mice, 45 min) was 0.8 ± 0.2. For the same molecule, the “FALLS IN 30 SEC, Pre-test” value in data set [4] (30 mg/kg per os, mice, pre-test) stood at 5.2 ± 0.3. For the same molecule, in data set [5] (10 mg/kg p.o.), the “PAW PRESSURE, AFTER TREATMENT (15 min)” value is listed as 49.3 ± 2.5 g; the “PAW PRESSURE, AFTER TREATMENT 30 min” value came out at 45.3 ± 3.9 g; the “PAW PRESSURE, Pre-test” value was 24.5 ± 2.1 g. In data set [5] (30 mg/kg p.o.), the “PAW PRESSURE, AFTER TREATMENT (15 min)” value was 59.1 ± 3.3 g; the “PAW PRESSURE, AFTER TREATMENT 30 min” value is 54.7 ± 3.6 g; the “PAW PRESSURE, Pre-test” value was found to be 24.4 ± 2.5 g. In addition, in data set [5] (lower dose (10 mg kg^−1 per os)), the “time after administration up to which the effect is statistically significant” value is given as “up to 45 minutes”. The “time after administration up to which the effect is statistically significant” value in data set [5] (three-fold dose (30 mg kg^−1 per os)) was “up to 60 minutes”. The molecule also registered a no. of writhes in data set [6] (1 mg kg^−1 per os, 30 min before the test) of 28.5 ± 2.8. In data set [6] (10 mg kg^−1 per os, 30 min before the test), this molecule yielded a no. of writhes of 21.8 ± 3.1. Moreover, in data set [6] (30 mg kg^−1 per os with naloxone 1 mg kg^−1 i.p. 15 min before), the no. of writhes was determined as 13.6 ± 3.0. The same molecule gave a no. of writhes in data set [6] (setting [8]) of 12.7 ± 2.6. Moreover, in data set [6] (30 mg kg^−1 per os, naloxone 1 mg kg^−1 i.p.), the “antagonism of the analgesia by naloxone” value was “not antagonized by the opioid antagonist naloxone”. For the same molecule, in data set [7] (10 mg/kg per os), the “PAW PRESSURE TEST, AFTER TREATMENT 15 min” value is on record as 34.6 ± 3.1^ g; the “PAW PRESSURE TEST, AFTER TREATMENT 30 min” value is recorded as 36.7 ± 3.5^ g; the “PAW PRESSURE TEST, AFTER TREATMENT 45 min” value is recorded as 31.9 ± 3.5 g; the “PAW PRESSURE TEST, AFTER TREATMENT 60 min” value is 26.9 ± 2.8 g. The “PAW PRESSURE TEST, Pre-test” value in data set [7] (10 mg/kg per os) is listed as 23.8 ± 3.6 g. In data set [7] (30 mg/kg per os), the “PAW PRESSURE TEST, AFTER TREATMENT 15 min” value amounted to 43.6 ± 3.9 g; the “PAW PRESSURE TEST, AFTER TREATMENT 30 min” value is 48.9 ± 3.6 g; the “PAW PRESSURE TEST, AFTER TREATMENT 45 min” value was 41.6 ± 3.6 g; the “PAW PRESSURE TEST, AFTER TREATMENT 60 min” value stood at 31.7 ± 3.3 g. The “PAW PRESSURE TEST, Pre-test” value in data set [7] (30 mg/kg per os) turned out to be 22.9 ± 3.5 g.
Take `CC(C)Cc1ccc(C(C)C(=O)O)cc1` (stereo not drawn) [IBUPROFEN, ibuprofen, reference compound]: the no. of writhes was determined as 20.3 ± 2.2 in data set [6] (setting [8]) and 13.5 ± 2.0 in data set [6] (100 mg kg^−1 per os, 30 min before the test).
Regarding `CC(C)C[C@H](CN)CC(=O)O` [PREGABALIN, pregabalin, reference compound], in data set [2] (200 mg/kg per os, left paw), the “PAW PRESSURE, AFTER TREATMENT (15 min)” value stood at 70.4 ± 3.5 g and the “PAW PRESSURE, BEFORE TREATMENT” value worked out at 57.3 ± 3.5 g. For the same molecule, in data set [2] (200 mg/kg per os, right paw), the “PAW PRESSURE, AFTER TREATMENT (15 min)” value worked out at 58.2 ± 3.1 g and the “PAW PRESSURE, BEFORE TREATMENT” value was 26.3 ± 3.0 g.
For the molecule `COc1cccc(C2(O)CCCCC2CN(C)C)c1` (stereo not drawn) [TRAMADOL, tramadol, reference compound], the “PAW PRESSURE, AFTER TREATMENT (15 min)” value in data set [2] (100 mg/kg per os, left paw) is recorded as 72.3 ± 3.0^ g; in data set [2] (100 mg/kg per os, right paw), 55.8 ± 2.5 g. Further, the “PAW PRESSURE, BEFORE TREATMENT” value in data set [2] (100 mg/kg per os, left paw) worked out at 58.3 ± 3.1 g; in data set [2] (100 mg/kg per os, right paw) it was 25.7 ± 2.2 g.
